Measured values as given in the kinase profiling compilation of Christmann-Franck et al. (2016).

How the values were obtained:
Assay in all cases: KINOMEscan competition binding
Details in all cases: compound 10.0 µM
AKT3 (human) = AKT3 (human) (UniProt Q9Y243)
AXL (human) = AXL (human) (UniProt P30530)
BRSK2 (human) = BRSK2 (human) (UniProt Q8IWQ3)
CAMKK2 (human) = CAMKK2 (human) (UniProt Q96RR4)
CDC42BPA (human) = CDC42BPA (human) (UniProt Q5VT25)
CDK2 (human) = CDK2 (human) (UniProt P24941)
CDK5 (human) = CDK5 (human) (UniProt Q00535)
CDK7 (human) = CDK7 (human) (UniProt P50613)
DDR1 (human) = DDR1 (human) (UniProt Q08345)
DYRK2 (human) = DYRK2 (human) (UniProt Q92630)
EPHA1 (human) = EPHA1 (human) (UniProt P21709)
ERN1 (human) = ERN1 (human) (UniProt O75460)
FLT3 (human) = FLT3 (human) (UniProt P36888)
GRK4 (human) = GRK4 (human) (UniProt P32298)
IKBKE (human) = IKBKE (human) (UniProt Q14164)
ITK (human) = ITK (human) (UniProt Q08881)
LIMK1 (human) = LIMK1 (human) (UniProt P53667)
MAP3K7 (human) = MAP3K7 (human) (UniProt O43318)
MAPK3 (human) = MAPK3 (human) (UniProt P27361)
MAPK4 (human) = MAPK4 (human) (UniProt P31152)
Chain of MAPK4 (human) (P31152 whole entry, looked up): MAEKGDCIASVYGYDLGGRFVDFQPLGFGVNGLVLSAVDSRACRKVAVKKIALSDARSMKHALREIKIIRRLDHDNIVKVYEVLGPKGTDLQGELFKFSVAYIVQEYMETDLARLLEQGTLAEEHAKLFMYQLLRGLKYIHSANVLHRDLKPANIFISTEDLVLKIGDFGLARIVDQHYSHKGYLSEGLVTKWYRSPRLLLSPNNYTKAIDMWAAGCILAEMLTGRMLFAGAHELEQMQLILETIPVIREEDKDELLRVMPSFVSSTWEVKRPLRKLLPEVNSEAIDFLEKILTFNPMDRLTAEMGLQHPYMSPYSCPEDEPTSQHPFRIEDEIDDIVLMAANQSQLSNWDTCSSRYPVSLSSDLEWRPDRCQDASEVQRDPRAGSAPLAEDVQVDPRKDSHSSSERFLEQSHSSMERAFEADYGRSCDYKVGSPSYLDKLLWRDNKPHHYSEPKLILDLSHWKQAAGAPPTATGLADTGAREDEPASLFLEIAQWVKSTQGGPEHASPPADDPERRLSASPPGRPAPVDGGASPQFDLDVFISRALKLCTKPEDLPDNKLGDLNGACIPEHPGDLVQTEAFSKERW

MAPK8 (human) = MAPK8 (human) (UniProt P45983)
MARK4 (human) = MARK4 (human) (UniProt Q96L34)
MELK (human) = MELK (human) (UniProt Q14680)
Chain of MELK (human) (Q14680 whole entry, looked up): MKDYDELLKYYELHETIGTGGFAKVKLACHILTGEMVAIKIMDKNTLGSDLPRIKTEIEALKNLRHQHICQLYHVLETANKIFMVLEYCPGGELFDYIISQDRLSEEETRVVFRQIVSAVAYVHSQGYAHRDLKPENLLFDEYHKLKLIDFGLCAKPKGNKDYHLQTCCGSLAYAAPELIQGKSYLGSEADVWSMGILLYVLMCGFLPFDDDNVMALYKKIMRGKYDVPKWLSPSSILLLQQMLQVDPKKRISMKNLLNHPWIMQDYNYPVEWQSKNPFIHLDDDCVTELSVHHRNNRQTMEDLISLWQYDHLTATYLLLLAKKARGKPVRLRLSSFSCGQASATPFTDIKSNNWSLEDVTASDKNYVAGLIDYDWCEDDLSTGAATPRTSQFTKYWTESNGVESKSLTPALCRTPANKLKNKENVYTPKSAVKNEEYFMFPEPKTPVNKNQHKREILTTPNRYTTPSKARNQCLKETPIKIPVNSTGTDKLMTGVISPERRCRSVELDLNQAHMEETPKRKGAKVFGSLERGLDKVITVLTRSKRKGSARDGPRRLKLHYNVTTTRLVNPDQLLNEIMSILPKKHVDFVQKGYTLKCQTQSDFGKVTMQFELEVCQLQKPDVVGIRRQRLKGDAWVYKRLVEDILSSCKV

NEK11 (human) = NEK11 (human) (UniProt Q8NG66)
NEK4 (human) = NEK4 (human) (UniProt P51957)
NIM1 (human) = NIM1 (human) (UniProt Q8IY84)
PIK3CB (human) = PIK3CB (human) (UniProt P42338)
Chain of PIK3CB (human) (P42338 whole entry, looked up): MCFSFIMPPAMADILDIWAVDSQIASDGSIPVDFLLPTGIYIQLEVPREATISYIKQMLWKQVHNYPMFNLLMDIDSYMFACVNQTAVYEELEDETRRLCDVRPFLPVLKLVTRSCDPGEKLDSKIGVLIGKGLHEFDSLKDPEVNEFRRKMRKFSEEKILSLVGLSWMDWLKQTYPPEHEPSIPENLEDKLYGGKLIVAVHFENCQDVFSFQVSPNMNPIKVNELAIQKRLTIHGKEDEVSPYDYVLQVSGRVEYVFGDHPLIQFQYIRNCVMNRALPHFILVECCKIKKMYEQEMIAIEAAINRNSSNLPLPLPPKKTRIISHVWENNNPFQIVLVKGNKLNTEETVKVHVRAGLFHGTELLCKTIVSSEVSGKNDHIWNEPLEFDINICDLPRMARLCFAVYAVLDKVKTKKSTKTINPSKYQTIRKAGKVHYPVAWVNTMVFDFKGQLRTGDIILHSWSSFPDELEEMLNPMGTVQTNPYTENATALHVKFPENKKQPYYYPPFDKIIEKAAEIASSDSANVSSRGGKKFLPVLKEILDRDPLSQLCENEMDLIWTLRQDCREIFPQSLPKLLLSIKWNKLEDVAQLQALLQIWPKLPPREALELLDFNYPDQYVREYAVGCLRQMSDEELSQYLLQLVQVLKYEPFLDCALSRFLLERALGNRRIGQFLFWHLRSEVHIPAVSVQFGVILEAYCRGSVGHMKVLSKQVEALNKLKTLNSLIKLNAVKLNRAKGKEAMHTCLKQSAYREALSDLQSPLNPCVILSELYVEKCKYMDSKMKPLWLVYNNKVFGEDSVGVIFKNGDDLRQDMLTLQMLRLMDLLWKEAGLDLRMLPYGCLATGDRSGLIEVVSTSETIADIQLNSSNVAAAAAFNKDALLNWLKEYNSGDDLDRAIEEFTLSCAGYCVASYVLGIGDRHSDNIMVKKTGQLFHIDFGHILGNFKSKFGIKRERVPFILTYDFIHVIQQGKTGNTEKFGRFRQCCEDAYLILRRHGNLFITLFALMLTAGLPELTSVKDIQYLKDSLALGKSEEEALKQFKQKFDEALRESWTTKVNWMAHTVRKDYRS

PIM1 (human) = PIM1 (human) (UniProt P11309)
Chain of PIM1 (human) (P11309 whole entry, looked up): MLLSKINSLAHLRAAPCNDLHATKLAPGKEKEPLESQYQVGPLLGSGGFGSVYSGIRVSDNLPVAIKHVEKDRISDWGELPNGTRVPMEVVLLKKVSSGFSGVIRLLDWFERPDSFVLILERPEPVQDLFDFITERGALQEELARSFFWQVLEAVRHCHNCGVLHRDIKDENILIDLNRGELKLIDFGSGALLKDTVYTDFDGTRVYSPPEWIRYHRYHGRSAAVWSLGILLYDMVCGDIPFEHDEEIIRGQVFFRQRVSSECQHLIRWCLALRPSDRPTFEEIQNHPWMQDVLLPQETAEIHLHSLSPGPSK

PLK4 (human) = PLK4 (human) (UniProt O00444)
PRKG1 (human) = PRKG1 (human) (UniProt Q13976)
[1] = system: RET (human), P07949 [M918T]
RIPK4 (human) = RIPK4 (human) (UniProt P57078)
Chain of RIPK4 (human) (P57078 whole entry, looked up): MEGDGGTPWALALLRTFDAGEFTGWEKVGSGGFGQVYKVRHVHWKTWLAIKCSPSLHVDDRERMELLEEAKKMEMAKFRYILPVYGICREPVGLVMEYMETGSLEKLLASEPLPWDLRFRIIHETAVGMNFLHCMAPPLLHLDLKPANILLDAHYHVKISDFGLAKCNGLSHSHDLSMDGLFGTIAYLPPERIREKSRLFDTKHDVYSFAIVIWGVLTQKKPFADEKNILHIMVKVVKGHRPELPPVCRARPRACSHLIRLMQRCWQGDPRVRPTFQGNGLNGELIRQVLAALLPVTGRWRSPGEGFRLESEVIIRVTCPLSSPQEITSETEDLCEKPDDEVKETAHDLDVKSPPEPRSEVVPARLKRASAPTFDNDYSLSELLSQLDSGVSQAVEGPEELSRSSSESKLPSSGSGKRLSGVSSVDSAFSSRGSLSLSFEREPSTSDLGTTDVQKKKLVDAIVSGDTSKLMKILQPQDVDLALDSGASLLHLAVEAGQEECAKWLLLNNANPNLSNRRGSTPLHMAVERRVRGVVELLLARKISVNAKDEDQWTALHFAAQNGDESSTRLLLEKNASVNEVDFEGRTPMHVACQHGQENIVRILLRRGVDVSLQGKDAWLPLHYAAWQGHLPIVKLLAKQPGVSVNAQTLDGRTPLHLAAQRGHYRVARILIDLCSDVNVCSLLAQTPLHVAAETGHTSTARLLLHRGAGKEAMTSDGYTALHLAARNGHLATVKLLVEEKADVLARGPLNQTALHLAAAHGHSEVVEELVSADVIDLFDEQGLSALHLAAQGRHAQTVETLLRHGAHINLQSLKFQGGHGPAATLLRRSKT

RPS6KA4 KD1 (human) = RPS6KA4 KD1 (human) (UniProt O75676)
TNK2 (human) = TNK2 (human) (UniProt Q07912)
TTK (human) = TTK (human) (UniProt P33981)
WEE1 (human) = WEE1 (human) (UniProt P30291)
ZAP70 (human) = ZAP70 (human) (UniProt P43403)
EPHB4 (human) = EPHB4 (human) (UniProt P54760)
[2] = system: FLT3 (human), P36888 [D835H]
LCK (human) = LCK (human) (UniProt P06239)
BTK (human) = BTK (human) (UniProt Q06187)

Chain of AXL (human) (P30530 whole entry, looked up): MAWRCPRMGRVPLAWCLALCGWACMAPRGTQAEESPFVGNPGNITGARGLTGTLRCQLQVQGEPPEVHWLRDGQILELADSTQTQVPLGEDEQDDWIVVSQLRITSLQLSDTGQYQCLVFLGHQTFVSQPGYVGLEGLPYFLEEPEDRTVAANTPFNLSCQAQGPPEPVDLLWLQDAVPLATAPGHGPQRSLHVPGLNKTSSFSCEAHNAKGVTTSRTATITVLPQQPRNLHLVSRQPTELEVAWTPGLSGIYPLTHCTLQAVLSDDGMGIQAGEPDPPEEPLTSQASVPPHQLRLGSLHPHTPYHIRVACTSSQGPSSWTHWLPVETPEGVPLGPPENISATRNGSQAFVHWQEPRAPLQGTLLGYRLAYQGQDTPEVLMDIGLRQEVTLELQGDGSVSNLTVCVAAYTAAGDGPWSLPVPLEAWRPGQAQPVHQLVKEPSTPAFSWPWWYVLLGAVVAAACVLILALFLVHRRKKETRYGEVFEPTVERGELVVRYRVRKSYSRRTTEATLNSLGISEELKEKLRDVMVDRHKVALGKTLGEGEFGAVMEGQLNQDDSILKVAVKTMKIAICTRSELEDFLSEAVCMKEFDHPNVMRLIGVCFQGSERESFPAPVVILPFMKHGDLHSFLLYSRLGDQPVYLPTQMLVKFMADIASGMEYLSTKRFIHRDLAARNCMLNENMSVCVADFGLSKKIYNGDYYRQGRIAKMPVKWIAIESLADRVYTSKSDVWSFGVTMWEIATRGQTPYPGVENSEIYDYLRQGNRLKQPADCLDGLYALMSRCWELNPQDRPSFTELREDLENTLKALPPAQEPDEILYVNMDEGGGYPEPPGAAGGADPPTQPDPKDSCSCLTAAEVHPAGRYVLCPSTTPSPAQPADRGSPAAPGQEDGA
Chain of AKT3 (human) (Q9Y243 whole entry, looked up): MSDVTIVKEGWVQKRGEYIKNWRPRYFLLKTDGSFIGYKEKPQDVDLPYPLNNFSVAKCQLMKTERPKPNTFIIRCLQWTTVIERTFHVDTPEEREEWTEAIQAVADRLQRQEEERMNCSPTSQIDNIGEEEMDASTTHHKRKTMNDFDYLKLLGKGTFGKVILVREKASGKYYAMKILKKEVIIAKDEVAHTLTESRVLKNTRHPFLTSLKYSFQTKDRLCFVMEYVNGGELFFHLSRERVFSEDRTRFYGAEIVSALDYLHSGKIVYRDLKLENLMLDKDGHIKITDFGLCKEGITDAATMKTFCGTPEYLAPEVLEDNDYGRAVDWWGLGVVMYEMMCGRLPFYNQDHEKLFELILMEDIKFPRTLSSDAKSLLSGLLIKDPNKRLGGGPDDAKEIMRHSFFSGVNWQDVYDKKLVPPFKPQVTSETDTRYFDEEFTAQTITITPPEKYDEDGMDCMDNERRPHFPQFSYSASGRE

| Compound | kinase still bound, per cent of control (AKT3 (human)) [%] | kinase still bound, per cent of control (AXL (human)) [%] | kinase still bound, per cent of control (BRSK2 (human)) [%] | kinase still bound, per cent of control (CDC42BPA (human)) [%] | kinase still bound, per cent of control (CDK2 (human)) [%] | kinase still bound, per cent of control (CDK5 (human)) [%] | kinase still bound, per cent of control (CDK7 (human)) [%] | kinase still bound, per cent of control (DDR1 (human)) [%] | kinase still bound, per cent of control (DYRK2 (human)) [%] | kinase still bound, per cent of control (EPHA1 (human)) [%] | kinase still bound, per cent of control (ERN1 (human)) [%] | kinase still bound, per cent of control (FLT3 (human)) [%] | kinase still bound, per cent of control (GRK4 (human)) [%] | kinase still bound, per cent of control (IKBKE (human)) [%] | kinase still bound, per cent of control (ITK (human)) [%] | kinase still bound, per cent of control (LIMK1 (human)) [%] | kinase still bound, per cent of control (MAP3K7 (human)) [%] | kinase still bound, per cent of control (MAPK3 (human)) [%] | kinase still bound, per cent of control (MAPK4 (human)) [%] | kinase still bound, per cent of control (MAPK8 (human)) [%] | also measured |
| --- | --- | --- | --- | --- | --- | --- | --- | --- | --- | --- | --- | --- | --- | --- | --- | --- | --- | --- | --- | --- | --- |
| CNC(=O)c1cc(Oc2ccc(NC(=O)Nc3ccc(Cl)c(C(F)(F)F)c3)cc2)ccn1 | 100 | 7.8 | 85 | 95 | 33 | 39 | 4.2 | 0 | 95 | 20 | 74 | 0.45 | 100 | 100 | 100 | 30 | 6.2 | 100 | 100 | 100 | kinase still bound, per cent of control (CAMKK2 (human)): 72%; kinase still bound, per cent of control (MARK4 (human)): 100%; kinase still bound, per cent of control (MELK (human)): 100%; kinase still bound, per cent of control (NEK11 (human)): 100%; kinase still bound, per cent of control (NEK4 (human)): 81%; kinase still bound, per cent of control (NIM1 (human)): 97%; kinase still bound, per cent of control (PIK3CB (human)): 100%; kinase still bound, per cent of control (PIM1 (human)): 98%; kinase still bound, per cent of control (PLK4 (human)): 28%; kinase still bound, per cent of control (PRKG1 (human)): 95%; kinase still bound, per cent of control [1]: 0.1%; kinase still bound, per cent of control (RIPK4 (human)): 92%; kinase still bound, per cent of control (RPS6KA4 KD1 (human)): 85%; kinase still bound, per cent of control (TNK2 (human)): 96%; kinase still bound, per cent of control (TTK (human)): 15%; kinase still bound, per cent of control (WEE1 (human)): 100%; kinase still bound, per cent of control (ZAP70 (human)): 100% |
| C[C@@H](Oc1cc(-c2cnn(C3CCNCC3)c2)cnc1N)c1c(Cl)ccc(F)c1Cl | 100 | 5.3 | 65 | 43 | 81 | 100 | 1.2 | 0.4 | 9.6 | 0.85 | 42 | 7.8 | 14 | 60 | 33 | 2.7 | 8.2 | 100 | 84 | 100 | kinase still bound, per cent of control (EPHB4 (human)): 4.8%; kinase still bound, per cent of control [2]: 6.8%; kinase still bound, per cent of control (LCK (human)): 0.15%; kinase still bound, per cent of control (MARK4 (human)): 48%; kinase still bound, per cent of control (MELK (human)): 47%; kinase still bound, per cent of control (NEK11 (human)): 98%; kinase still bound, per cent of control (NEK4 (human)): 25%; kinase still bound, per cent of control (NIM1 (human)): 12%; kinase still bound, per cent of control (PIK3CB (human)): 99%; kinase still bound, per cent of control (PIM1 (human)): 100%; kinase still bound, per cent of control (PLK4 (human)): 0.1%; kinase still bound, per cent of control (PRKG1 (human)): 100%; kinase still bound, per cent of control (RIPK4 (human)): 8.2%; kinase still bound, per cent of control (RPS6KA4 KD1 (human)): 100%; kinase still bound, per cent of control (TNK2 (human)): 2.8%; kinase still bound, per cent of control (TTK (human)): 50%; kinase still bound, per cent of control (WEE1 (human)): 100%; kinase still bound, per cent of control (ZAP70 (human)): 29% |
| CS(=O)(=O)N1CCN(Cc2cc3nc(-c4cccc5[nH]ncc45)nc(N4CCOCC4)c3s2)CC1 | 100 | 100 | 100 | 100 | 100 | 100 | 100 | 100 | 100 | 100 | 100 | 100 | 100 | 100 | 100 | 100 | 100 | 100 | 100 | 100 | kinase still bound, per cent of control (BTK (human)): 100%; kinase still bound, per cent of control (CAMKK2 (human)): 100%; kinase still bound, per cent of control (EPHB4 (human)): 100%; kinase still bound, per cent of control [2]: 100%; kinase still bound, per cent of control (LCK (human)): 100%; kinase still bound, per cent of control (MARK4 (human)): 100%; kinase still bound, per cent of control (MELK (human)): 100%; kinase still bound, per cent of control (NIM1 (human)): 100%; kinase still bound, per cent of control (PIK3CB (human)): 0.1%; kinase still bound, per cent of control (PIM1 (human)): 100%; kinase still bound, per cent of control (PLK4 (human)): 100%; kinase still bound, per cent of control (PRKG1 (human)): 100%; kinase still bound, per cent of control [1]: 100%; kinase still bound, per cent of control (RIPK4 (human)): 100%; kinase still bound, per cent of control (RPS6KA4 KD1 (human)): 100%; kinase still bound, per cent of control (TNK2 (human)): 100%; kinase still bound, per cent of control (TTK (human)): 100%; kinase still bound, per cent of control (WEE1 (human)): 100%; kinase still bound, per cent of control (ZAP70 (human)): 100% |
